The results in this text go back to patent US10173991B2, “Sulfone amide linked benzothiazole inhibitors of endothelial lipase” (BRISTOL-MYERS SQUIBB COMPANY, priority 2014, dated 2019).

The assay has as its target Endothelial lipase (EL) (Homo sapiens (Human), UniProt Q9Y5X9). The assay can be described thus: Endothelial lipase (EL) enzymatic assay with fluorescent substrate A10070 in DMPG vesicles. Type of assay: biochemical. The gist of the method:
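Substrate A10070 sits in sonicated DMPG vesicles at 0.11 mole fraction. Lipase and compound preincubated 30 min, 37° C, in HEPES pH 8.0 buffer with CaCl2.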

[1] abbreviates: EL from conditioned media of HT-1080 cells, 30 min preincubation at 37° C.

Read-outs that look alike come from different tables or passages of the source.

Endothelial lipase (EL), sequence (Q9Y5X9 21-500): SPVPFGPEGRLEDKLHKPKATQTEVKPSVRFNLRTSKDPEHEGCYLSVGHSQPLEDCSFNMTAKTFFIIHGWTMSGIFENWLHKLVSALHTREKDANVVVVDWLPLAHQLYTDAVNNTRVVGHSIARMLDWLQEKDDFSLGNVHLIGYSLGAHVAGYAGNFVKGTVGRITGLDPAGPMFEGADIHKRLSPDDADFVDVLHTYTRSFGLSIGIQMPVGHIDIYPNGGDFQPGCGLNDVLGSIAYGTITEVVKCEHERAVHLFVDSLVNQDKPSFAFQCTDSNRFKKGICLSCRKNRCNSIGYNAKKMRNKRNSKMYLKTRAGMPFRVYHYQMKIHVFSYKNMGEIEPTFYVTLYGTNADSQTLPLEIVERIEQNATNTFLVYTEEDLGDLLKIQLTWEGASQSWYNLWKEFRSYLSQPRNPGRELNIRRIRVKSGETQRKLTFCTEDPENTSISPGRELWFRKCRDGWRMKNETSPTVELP

By IC50 is commonly meant the midpoint of a concentration-inhibition curve. For `CN(C)S(=O)(=O)C(C(=O)NCC(=O)NC1CC1)c1nc2c(F)cc(-c3ccc4[nH]c(=O)ccc4c3)cc2s1` (centres unmarked) [Example 492, N-[(cyclopropyl-carbamoyl)methyl]-2-(dimethyl-sulfamoyl)-2-[4-fluoro-6-(2-oxo-1,2-dihydroquinolin-6-yl)-1,3-benzothiazol-2-yl]acetamide], the 50% inhibitory concentration (IC50) was determined as 5 nM.
The same measure, in the same setting: for `CN(C)S(=O)(=O)C(C(=O)NCC(=O)NC1CC1)c1nc2c(F)cc(-c3ccc4c(=O)n(C)ccc4c3)cc2s1` (centres unmarked) [Example 493, N-[(cyclopropyl-carbamoyl)methyl]-2-(dimethyl-sulfamoyl)-2-[4-fluoro-6-(2-methyl-1-oxo-1,2-dihydro-isoquinolin-6-yl)-1,3-benzothiazol-2-yl]acetamide] the value was 1 nM; for `CN(C)S(=O)(=O)C(C(=O)NCC(=O)NC1CC1)c1nc2c(F)cc(-c3ccc4cnn(C)c4c3)cc2s1` (centres unmarked) [Example 494, N-[(cyclopropyl-carbamoyl)methyl]-2-(dimethyl-sulfamoyl)-2-[4-fluoro-6-(1-methyl-1H-indazol-6-yl)-1,3-benzothiazol-2-yl] acetamide], 44 nM; for `CN(C)S(=O)(=O)C(C(=O)NCC(=O)NC1CC1)c1nc2c(F)cc(-c3ccc(NC(=O)OCc4ccccc4)cc3)cc2s1` (centres unmarked) [Example 495, benzyl N-{4-[2-({[(cyclopropyl-carbamoyl)methyl]carbamoyl} (dimethyl-sulfamoyl)methyl)-4-fluoro-1,3-benzothiazol-6-yl]phenyl}carbamate], 2 nM.
The same measure, in the same setting: for `COC(=O)Nc1ccc(-c2cc(F)c3nc(C(C(=O)NCC(=O)NC4CC4)S(=O)(=O)N(C)C)sc3c2)cc1` (centres unmarked) [Example 496, methyl N-{4-[2-({[(cyclopropyl-carbamoyl)methyl]carbamoyl} (dimethyl-sulfamoyl)methyl)-4-fluoro-1,3-benzothiazol-6-yl]phenyl} carbamate] the value was 2 nM; for `CN(C)S(=O)(=O)C(C(=O)NCC(=O)NC1CC1)c1nc2c(F)cc(-c3ccc(-n4ccccc4=O)cc3)cc2s1` (centres unmarked) [Example 497, N-[(cyclopropyl-carbamoyl)methyl]-2-(dimethyl-sulfamoyl)-2-{4-fluoro-6-[4-(2-oxo-1,2-dihydropyridin-1-yl)phenyl]-1,3-benzothiazol-2-yl}acetamide], 3 nM.
The same measure, in the same setting: as for `CN(C)S(=O)(=O)C(C(=O)NCC(=O)NC1CC1)c1nc2c(F)cc(-c3ccc(-c4ccccc4)nc3)cc2s1` (centres unmarked) [Example 498, N-[(cyclopropyl-carbamoyl)methyl]-2-(dimethyl-sulfamoyl)-2-[4-fluoro-6-(6-phenylpyridin-3-yl)-1,3-benzothiazol-2-yl]acetamide], the figure is 3 nM; as for `CN(C)S(=O)(=O)C(C(=O)NCC(=O)NC1CC1)c1nc2c(F)cc(-c3ccc(N4CCCCC4=O)cc3)cc2s1` (centres unmarked) [Example 499, N-[(cyclopropyl-carbamoyl)methyl]-2-(dimethyl-sulfamoyl)-2-{4-fluoro-6-[4-(2-oxopiperidin-1-yl)phenyl]-1,3-benzothiazol-2-yl} acetamide], 4 nM.
In turn, `CN(C)S(=O)(=O)C(C(=O)NCC(=O)NC1CC1)c1nc2c(F)cc(-c3cnc(-c4ccccc4)nc3)cc2s1` (centres unmarked) [Example 500, N-[(cyclopropyl-carbamoyl)methyl]-2-(dimethyl-sulfamoyl)-2-[4-fluoro-6-(2-phenylpyrimidin-5-yl)-1,3-benzothiazol-2-yl]acetamide] returned an IC50 of 8 nM.
Same read-out and setting: as for `CN(C)S(=O)(=O)C(C(=O)NCC(=O)NC1CC1)c1nc2c(F)cc(-c3ccccc3)cc2s1` (centres unmarked) [Example 501, N-[(cyclopropyl-carbamoyl)methyl]-2-(dimethyl-sulfamoyl)-2-(4-fluoro-6-phenyl-1,3-benzothiazol-2-yl)acetamide], the figure is 8 nM.
In the case of `CN(C)S(=O)(=O)C(C(=O)NCC(=O)NC1CC1)c1nc2c(F)cc(-c3cccc(NC(=O)OCc4ccccc4)c3)cc2s1` (centres unmarked) [Example 502, benzyl N-{3-[2-({[(cyclopropyl-carbamoyl)methyl]carbamoyl} (dimethyl-sulfamoyl)methyl)-4-fluoro-1,3-benzothiazol-6-yl]phenyl} carbamate], the IC50 is 2 nM.
`COC(=O)Nc1cccc(-c2cc(F)c3nc(C(C(=O)NCC(=O)NC4CC4)S(=O)(=O)N(C)C)sc3c2)c1` (centres unmarked) [Example 503, methyl N-{3-[2-({[(cyclopropyl-carbamoyl)methyl]carbamoyl} (dimethyl-sulfamoyl)methyl)-4-fluoro-1,3-benzothiazol-6-yl]phenyl} carbamate] displayed an IC50 of 21 nM.
Compound `CN(C)S(=O)(=O)C(C(=O)NCC(=O)NC1CC1)c1nc2c(F)cc(-c3ccc(-c4nnn[nH]4)cc3)cc2s1` (centres unmarked) [Example 504, N-[(cyclopropyl-carbamoyl)methyl]-2-(dimethyl-sulfamoyl)-2-{4-fluoro-6-[4-(1H-1,2,3,4-tetrazol-5-yl)phenyl]-1,3-benzothiazol-2-yl}acetamide] returned an IC50 of 10 nM.
The same measure, in the same setting: as for `CN(C)S(=O)(=O)C(C(=O)NCC(=O)NC1CC1)c1nc2c(F)cc(-c3cccc(-n4cccn4)c3)cc2s1` (centres unmarked) [Example 505, N-[(cyclopropyl-carbamoyl)methyl]-2-(dimethyl-sulfamoyl)-2-{4-fluoro-6-[3-(1H-pyrazol-1-yl)phenyl]-1,3-benzothiazol-2-yl}acetamide], the figure is 130 nM; as for `CN(C)S(=O)(=O)C(C(=O)NCC(=O)NC1CC1)c1nc2cc(F)c(-c3cccc(-n4cccn4)c3)cc2s1` (centres unmarked) [Example 506, N-[(cyclopropyl-carbamoyl)methyl]-2-(dimethyl-sulfamoyl)-2-{5-fluoro-6-[3-(1H-pyrazol-1-yl)phenyl]-1,3-benzothiazol-2-yl} acetamide], 52 nM; as for `CN(C)S(=O)(=O)C(C(=O)NCC(=O)NC1CC1)c1nc2cc(F)c(-c3ccc(-c4ccccc4)nc3)cc2s1` (centres unmarked) [Example 507, N-[(cyclopropyl-carbamoyl)methyl]-2-(dimethyl-sulfamoyl)-2-[5-fluoro-6-(6-phenylpyridin-3-yl)-1,3-benzothiazol-2-yl]acetamide], 16 nM.
The same measure, in the same setting: as for `CN(C)S(=O)(=O)C(C(=O)NCC(=O)NC1CC1)c1nc2cc(F)c(-c3ccc(-c4ccccn4)cc3)cc2s1` (centres unmarked) [Example 508, N-[(cyclopropyl-carbamoyl)methyl]-2-(dimethyl-sulfamoyl)-2-{5-fluoro-6-[4-(pyridin-2-yl)phenyl]-1,3-benzothiazol-2-yl}acetamide], the figure is 15 nM.
Regarding `O=C(CNC(=O)C(c1nc2ccc(-c3ccc(F)nc3)cc2s1)S(=O)(=O)CCO)NC1CC1` (centres unmarked) [Example 509, N-[(Cyclopropylcarbamoyl)methyl]-2-[6-(6-fluoropyridin-3-yl)-1,3-benzothiazol-2-yl]-2-(2-hydroxyethanesulfonyl)acetamide], the IC50 under setting [1] worked out at 280 nM.
Same read-out and setting: as for `CS(=O)(=O)C(C(=O)NCC(=O)NC1CC1)c1nc2cc(F)c(-c3ccc(NC(=O)OCc4ccccn4)cc3)cc2s1` (centres unmarked) [Example 510, Pyridin-2-ylmethyl (4-(2-(2-((2-(cyclopropylamino)-2-oxoethyl)amino)-1-(methylsulfonyl)-2-oxoethyl)-5-fluorobenzo[d]thiazol-6-yl)phenyl)carbamate], the figure is 1.3 nM.
For the compound `O=C(CNC(=O)C(c1nc2cc(F)c(-c3ccc(NC(=O)NCc4ccccc4)cc3)cc2s1)S(=O)(=O)CCC(F)(F)F)NC1CC1` (centres unmarked) [Example 511, 2-(6-{4-[(benzyl-carbamoyl)amino]phenyl}-5-fluoro-1,3-benzothiazol-2-yl)-N-[(cyclopropyl-carbamoyl)methyl]-2-(3,3,3-trifluoropropane-sulfonyl)acetamide], the IC50 stood at 1 nM.
`O=C(CNC(=O)C(c1nc2ccc(-c3ccc(F)nc3)cc2s1)S(=O)(=O)Cc1ccc(C(F)(F)F)cc1)NC1CC1` (centres unmarked) [Example 512, N-[(cyclopropyl-carbamoyl)methyl]-2-[6-(6-fluoropyridin-3-yl)-1,3-benzothiazol-2-yl]-2-{[4-(trifluoromethyl)phenyl]methanesulfonyl} acetamide] registered an IC50 of 16 nM.
Turning to `O=C(CNC(=O)C(c1nc2ccc(-c3ccc(F)nc3)cc2s1)S(=O)(=O)Cc1ccc(OC(F)(F)F)cc1)NC1CC1` (centres unmarked) [Example 513, N-[(cyclopropyl-carbamoyl)methyl]-2-[6-(6-fluoropyridin-3-yl)-1,3-benzothiazol-2-yl]-2-{[4-(trifluoromethoxy)phenyl]methanesulfonyl} acetamide], half-maximal inhibition (IC50) required 20 nM.
The same measure, in the same setting: for `COCCS(=O)(=O)C(C(=O)NCC(=O)NC1CC1)c1nc2c(F)cc(-c3ccc(F)nc3)cc2s1` (centres unmarked) [Example 514, N-[(cyclopropyl-carbamoyl)methyl]-2-[4-fluoro-6-(6-fluoropyridin-3-yl)-1,3-benzothiazol-2-yl]-2-(2-methoxyethane-sulfonyl)acetamide] the value was 43 nM; for `O=C(CNC(=O)C(c1nc2ccc(-c3ccc(F)nc3)cc2s1)S(=O)(=O)Cc1ccc(F)cc1)NC1CC1` (centres unmarked) [Example 515, N-[(cyclopropyl-carbamoyl)methyl]-2-[(4-fluorophenyl)methanesulfonyl]-2-[6-(6-fluoropyridin-3-yl)-1,3-benzothiazol-2-yl]acetamide], 48 nM; for `CC(C)CS(=O)(=O)C(C(=O)NCC(=O)NC1CC1)c1nc2ccc(-c3ccc(F)nc3)cc2s1` (centres unmarked) [Example 516, N-[(cyclopropyl-carbamoyl)methyl]-2-[6-(6-fluoropyridin-3-yl)-1,3-benzothiazol-2-yl]-2-(2-methylpropane-sulfonyl)acetamide], 57 nM.
The same measure, in the same setting: for `O=C(CNC(=O)C(c1nc2ccc(-c3cncnc3)cc2s1)S(=O)(=O)Cc1ccc(F)cc1)NC1CC1` (centres unmarked) [Example 517, N-[(cyclopropyl-carbamoyl)methyl]-2-[(4-fluorophenyl)methanesulfonyl]-2-[6-(pyrimidin-5-yl)-1,3-benzothiazol-2-yl]acetamide] the value was 117 nM.
